From patent publication US10265298B2, “Method of increasing the bioavailability of silybin” (Macau University of Science and Technology, priority 2017, dated 2019) come the findings set out here.

The subject of series [1] is Caco-2 cells. Briefly: Glucuronidation of silybin in Caco-2 cells (LC-MS peak area of silybin glucuronides). In kind it is in vitro ADME, human. The following applies: silybin 10 μM, test compound 20 μM co-incubation. How it is done: The analysis of silybin and total concentrations of glucuronides and sulfates was performed on an Agilent HP 1100 LC-MS system (Agilent, CA). A Waters ACQUITY UPLC® BEH C18 Column (1.7 μm, 2.1×50 mm, Waters Corp., Ireland) was used for detection with a C18 Security Guard cartridge (4×2.0 mm i.d., Phenomenex, Torrance, Calif.). Silybin A and silybin B were well separated using optimized gradient elution with methanol (mobile phase B) and 0.1% formic acid in water (mobile phase A) as mobile phase at a flow rate of 0.4 ml/min with a run time of 10 minutes. The gradient employed was as follows (time: mobile phase B percentage): 0 min: 25%, 6 minutes: 40%, 6.5 minutes: 25%.
MS parameters including: capillary voltage, −4000 V; nebulizer pressure, 40 pounds per square inch (psi); drying gas, 9 liters per minute (L/min); drying gas temperature, 325° C.; fragment voltage, 35 volts; dwell time, 200 milliseconds (ms); scan mode, selective ion monitoring (SIM) with [M-H]− for silybin (mass-to-charge ratio (m/z) 481), mono-glucuronide (m/z 657), and NG (m/z 271), respectively. LC-MS data were obtained by Agilent ChemStation Software.
Silybin is primarily metabolized to glucuronide (about 55%) and sulfate (about 28%) conjugates in human plasma after oral administration. To examine whether the co-incubation of flavonoids could affect the conjugation of silybin, the peak area of silybin glucuronides was measured by LC-MS (FIG. 6). Identification of glucuronides in the samples was based on their MS in-source fragmentations (m/z 657).

Series [2] deals with MDR1 (P-gp) (Homo sapiens, UniProt P08183). Briefly: cell-based. Here is the method:
(§1) Parental Madin-Darby canine kidney II (MDCKII), multi-drug resistance gene 1-Madin-Darby canine kidney II (MDR1-MDCKII), breast cancer resistance protein-Madin-Darby canine kidney II (BCRP-MDCKII), and multi-drug resistance protein 2-Madin-Darby canine kidney II (MRP2-MDCKII) cells were kindly provided by the Netherlands Cancer Institute (Amsterdam, Netherlands) and frozen at −80° C. The MDCKII cells were cultured at 37° C./5% CO2 in Dulbecco's modified Eagle's medium supplemented with 10% fetal bovine serum, 1% nonessential amino acids, and 2% penicillin-streptomycin. The cells were seeded on transwell inserts (Corning Inc.) at a density of 2.0×10^5 cells/cm^2 and grown for 4-5 days to form confluent monolayers.
(§2) Bidirectional transport assays in human colorectal adenocarcinoma 2 (Caco-2) and Madin-Darby canine kidney II (MDCK II) was carried out by dosing substrates in assay buffer to either the apical chamber (A-to-B) or the basolateral chamber (B-to-A); cells were then incubated at 37° C. with shaking at 50 rotations per minute (rpm), and 100 μl samples were collected at 30, 60, 90, 120 and 180 minutes from the basolateral chamber to study the drug transport of AP to BL, or apical chamber to study the drug transport of BL to AP. Cell monolayers were then washed twice with ice-cold assay buffer and lysed with methanol on ice for 10 minutes. For inhibition studies, Caco-2 or MDCK II cell monolayers were pre-incubated with an inhibitor in both apical and basolateral chambers for 30 minutes, and bidirectional transport of 10 μM silybin was conducted in the absence (control) or presence of the inhibitor in both chambers. […] For fluorescence intensity detection, samples collected from AP or BL side were immediately detected in 96 well black plate by Microplate ultraviolet-visible spectroscopy (UV/VIS) spectrophotometer (TECAN infinite M200 PRO, Männedorf, Switzerland). In all cases, each determination was performed in triplicate.
(§3) The apparent permeability coefficients (Papp) were calculated as Papp=dQ/dt×1/(C“0”A) where dQ/dt (mM/sec) is the rate of permeation of the drug across the cells, C0 (millimolar (mM)) is the donor compartment concentration at time zero and A (cm^2) is the area of the cell monolayer. C0 is obtained from analysis of the dosing solution at the start experiment. Efflux Ratio (ER)=Papp (B to A)/Papp (A to B), while Papp (B−A) is the Papp value measured in the B to A direction, and Papp (A−B) is the Papp value measured in the A to B direction. 1.5 Preparation of Rat Sandwich-Cultured Hepatocytes
(§4) (*, P<0.05;**, P<0.01; ***, P<0.001 vs absence of any inhibitor. n=3).
as §4

Series [3] concerns the target MRP2 (Homo sapiens, UniProt Q92887). Kind of series: cell-based. Particulars: for efflux ratio of CDCFDA in the presence of inhibitor: dog, 180 min. Here is the method:
as §1, §2, §3, §4, §4

The target in series [4] is T1, BCRP (Homo sapiens, UniProt Q9UNQ0).
T1 sequence (Q9UNQ0 1-655): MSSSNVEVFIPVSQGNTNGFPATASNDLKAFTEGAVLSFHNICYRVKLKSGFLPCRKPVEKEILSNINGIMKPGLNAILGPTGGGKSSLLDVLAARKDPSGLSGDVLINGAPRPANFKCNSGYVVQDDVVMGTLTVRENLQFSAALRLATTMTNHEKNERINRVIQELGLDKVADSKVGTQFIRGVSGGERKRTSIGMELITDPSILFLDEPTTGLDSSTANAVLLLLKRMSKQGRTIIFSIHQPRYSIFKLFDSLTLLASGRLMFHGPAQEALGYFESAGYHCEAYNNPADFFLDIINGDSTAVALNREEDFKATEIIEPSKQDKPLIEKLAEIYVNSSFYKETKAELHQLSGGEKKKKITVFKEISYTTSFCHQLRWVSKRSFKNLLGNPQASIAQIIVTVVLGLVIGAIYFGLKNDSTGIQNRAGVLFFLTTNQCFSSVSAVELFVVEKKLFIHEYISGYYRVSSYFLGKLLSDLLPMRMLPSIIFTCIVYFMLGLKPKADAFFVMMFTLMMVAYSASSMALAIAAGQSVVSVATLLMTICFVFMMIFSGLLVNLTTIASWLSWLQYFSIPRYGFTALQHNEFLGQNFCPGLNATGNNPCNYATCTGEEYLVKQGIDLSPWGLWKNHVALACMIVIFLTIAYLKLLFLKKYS
Kind of series: Inhibition of pheophorbide A (Ph A) efflux in MDCKII-BCRP cell monolayers. Particulars: for mean efflux ratio of Ph A in the presence of inhibitor: dog, 180 min. How it is done: as §1, §2, §3, §4, §4

The target in series [5] is T1, BCRP. Kind of series: Transport of silybin across MDCKII-BCRP cells. In kind it is in vitro ADME. Set-up: host or cells: MDCKII (Madin-Darby canine kidney II). How it is done: In all cases, each determination was performed in triplicate.
1.5 Preparation of Rat Sandwich-Cultured Hepatocytes

Chain of MRP2 (Q92887 whole entry): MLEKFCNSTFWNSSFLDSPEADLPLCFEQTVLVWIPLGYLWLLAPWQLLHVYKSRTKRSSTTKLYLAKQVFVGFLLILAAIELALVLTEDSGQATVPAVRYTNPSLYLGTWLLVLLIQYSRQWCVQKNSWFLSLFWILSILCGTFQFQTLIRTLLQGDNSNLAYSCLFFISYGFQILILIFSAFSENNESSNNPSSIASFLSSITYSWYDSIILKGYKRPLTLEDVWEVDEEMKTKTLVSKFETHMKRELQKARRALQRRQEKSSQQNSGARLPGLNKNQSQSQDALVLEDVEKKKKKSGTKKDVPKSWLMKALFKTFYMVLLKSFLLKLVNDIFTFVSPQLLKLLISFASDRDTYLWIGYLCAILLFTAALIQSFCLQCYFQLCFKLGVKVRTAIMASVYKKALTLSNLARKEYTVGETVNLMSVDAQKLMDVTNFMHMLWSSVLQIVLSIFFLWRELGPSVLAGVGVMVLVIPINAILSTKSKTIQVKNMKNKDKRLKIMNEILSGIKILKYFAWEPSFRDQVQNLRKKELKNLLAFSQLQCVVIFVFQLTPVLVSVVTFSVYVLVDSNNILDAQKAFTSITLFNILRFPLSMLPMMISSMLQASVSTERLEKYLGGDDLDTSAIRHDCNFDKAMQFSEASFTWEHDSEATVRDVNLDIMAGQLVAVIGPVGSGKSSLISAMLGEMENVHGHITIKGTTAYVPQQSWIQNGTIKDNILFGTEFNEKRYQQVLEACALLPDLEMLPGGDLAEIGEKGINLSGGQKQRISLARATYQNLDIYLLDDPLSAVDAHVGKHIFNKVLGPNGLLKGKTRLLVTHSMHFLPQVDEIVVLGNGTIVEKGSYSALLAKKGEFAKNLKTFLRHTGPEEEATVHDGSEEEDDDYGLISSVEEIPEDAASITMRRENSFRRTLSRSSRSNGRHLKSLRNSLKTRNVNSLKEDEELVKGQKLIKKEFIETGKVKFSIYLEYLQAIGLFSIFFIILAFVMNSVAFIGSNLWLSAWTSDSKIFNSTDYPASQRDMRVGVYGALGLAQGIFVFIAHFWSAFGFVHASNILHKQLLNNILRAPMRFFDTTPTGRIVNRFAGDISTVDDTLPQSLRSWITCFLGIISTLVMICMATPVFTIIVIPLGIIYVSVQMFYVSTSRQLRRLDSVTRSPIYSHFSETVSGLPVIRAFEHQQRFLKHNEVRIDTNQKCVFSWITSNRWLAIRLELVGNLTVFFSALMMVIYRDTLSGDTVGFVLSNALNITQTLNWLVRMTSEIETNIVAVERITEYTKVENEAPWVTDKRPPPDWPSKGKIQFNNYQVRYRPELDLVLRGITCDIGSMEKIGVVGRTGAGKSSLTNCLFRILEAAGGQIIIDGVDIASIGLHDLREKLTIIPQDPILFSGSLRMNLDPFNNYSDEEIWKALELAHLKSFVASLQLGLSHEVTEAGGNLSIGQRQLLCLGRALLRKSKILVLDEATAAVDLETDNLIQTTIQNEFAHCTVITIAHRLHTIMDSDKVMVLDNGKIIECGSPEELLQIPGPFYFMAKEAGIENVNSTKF
Chain of MDR1 (P-gp) (P08183 whole entry): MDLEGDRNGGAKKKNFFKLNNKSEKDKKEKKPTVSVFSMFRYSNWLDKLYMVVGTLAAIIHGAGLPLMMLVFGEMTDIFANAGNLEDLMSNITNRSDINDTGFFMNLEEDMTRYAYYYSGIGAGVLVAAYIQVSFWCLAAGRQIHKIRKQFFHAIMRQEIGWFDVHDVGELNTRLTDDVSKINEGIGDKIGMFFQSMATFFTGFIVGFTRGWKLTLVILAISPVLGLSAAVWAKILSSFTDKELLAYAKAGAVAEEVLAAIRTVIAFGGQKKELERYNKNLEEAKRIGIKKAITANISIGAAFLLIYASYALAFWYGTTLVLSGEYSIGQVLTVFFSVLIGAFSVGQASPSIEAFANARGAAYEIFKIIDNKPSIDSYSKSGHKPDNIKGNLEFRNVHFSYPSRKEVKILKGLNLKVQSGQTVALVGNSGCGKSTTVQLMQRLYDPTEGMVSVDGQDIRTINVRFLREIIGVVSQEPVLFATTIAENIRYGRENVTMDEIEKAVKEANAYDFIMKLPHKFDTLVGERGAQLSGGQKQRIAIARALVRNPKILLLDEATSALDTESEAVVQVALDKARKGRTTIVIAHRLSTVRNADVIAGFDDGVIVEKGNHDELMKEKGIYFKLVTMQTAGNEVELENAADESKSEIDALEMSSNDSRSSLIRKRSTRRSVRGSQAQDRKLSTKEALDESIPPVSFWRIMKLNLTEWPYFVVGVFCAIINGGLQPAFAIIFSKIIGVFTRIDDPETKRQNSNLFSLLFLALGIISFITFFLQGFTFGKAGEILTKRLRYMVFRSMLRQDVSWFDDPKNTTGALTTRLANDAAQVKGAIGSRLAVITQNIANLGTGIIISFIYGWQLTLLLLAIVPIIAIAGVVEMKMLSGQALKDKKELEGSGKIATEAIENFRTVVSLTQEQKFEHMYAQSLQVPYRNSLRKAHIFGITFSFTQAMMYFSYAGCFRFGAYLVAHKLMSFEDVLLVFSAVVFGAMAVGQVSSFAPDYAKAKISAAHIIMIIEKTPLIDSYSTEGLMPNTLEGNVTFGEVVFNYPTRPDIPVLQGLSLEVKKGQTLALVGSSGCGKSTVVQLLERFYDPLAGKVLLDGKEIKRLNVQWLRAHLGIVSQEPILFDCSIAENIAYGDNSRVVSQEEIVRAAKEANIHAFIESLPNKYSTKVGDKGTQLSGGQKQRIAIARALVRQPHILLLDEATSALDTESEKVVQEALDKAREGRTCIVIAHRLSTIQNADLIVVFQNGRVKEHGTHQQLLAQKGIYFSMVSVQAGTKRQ

Usually IC50 stands for the point on the concentration scale where inhibition reaches its midpoint. The low end stands for greater potency, the high end for weaker potency. For the compound `O=c1cc(-c2ccccc2)oc2cc(O)c(O)c(O)c12` [baicalein], the “effect on glucuronide metabolites / glucuronide conjugation of silybin” value in series [1] was “almost undetected”. Moreover, the IC50 in series [2] is 20.6 µM. In series [3], inhibition was half-maximal at 21.2 µM (IC50) and the “efflux ratio of CDCFDA in the presence of inhibitor” value is given as 1.46. Further, in series [4], the half-inhibitory concentration (IC50) stood at 22.1 µM and the “mean efflux ratio of Ph A in the presence of inhibitor” value is 1.48.
With `COc1cc([C@H]2Oc3cc([C@H]4Oc5cc(O)cc(O)c5C(=O)[C@@H]4O)ccc3O[C@@H]2CO)ccc1O` [silybin A], the net efflux ratio in series [5] came to 2.96.
For the compound `COc1cc([C@@H]2Oc3cc([C@H]4Oc5cc(O)cc(O)c5C(=O)[C@@H]4O)ccc3O[C@H]2CO)ccc1O` [silybin B], in series [5], the net efflux ratio turned out to be 3.04.
For the compound `COc1cc(C2Oc3cc([C@H]4Oc5cc(O)cc(O)c5C(=O)[C@@H]4O)ccc3OC2CO)ccc1O` (stereo partly drawn) [silybin], the BCRP substrate status result in series [5] (dog, 180 min, 10 µM) was “is a substrate for both MRP2 and BCRP efflux proteins”.
Regarding `COc1ccc(-c2cc(=O)c3c(OC)c(OC)c(OC)c(OC)c3o2)cc1` [tangeretin], the “effect on glucuronide metabolites / glucuronide conjugation of silybin” value in series [1] is “did not significantly inhibit the conjugation”. In series [2], the IC50 was found to be 6.88 µM. Further, in series [3], the concentration for half-maximal inhibition (IC50) was 8.84 µM and the “efflux ratio of CDCFDA in the presence of inhibitor” value is 1.54. Also, in series [4], the half-maximal inhibitory concentration (IC50) was 8.88 µM and the “mean efflux ratio of Ph A in the presence of inhibitor” value worked out at 1.18.
